Experimental findings from patent US9708305B2, “Substituted 1,2,3,4-tetrahydroisoquinoline derivatives for the treatment of hormone-dependent diseases” (UNIVERSITÉ LAVAL, priority 2013, dated 2017) are described below.

What all share (type): cell-based
The test system of one experiment is MCF-7 (ER+) cells. Briefly: Proliferative (estrogenic) activity on MCF-7 (ER+) cells. Conditions: 0.1 nM; 7 days; control 100%. As to the method:
The next step was to determine the presence or absence of estrogenic activity. To do so, cell proliferative assays were carried out on MCF-7 cells. […] Phenols of the corresponding sulfamate library 3-EO and 4-EO are referred to as library 3′-EO and library 4′-EO, respectively.
This cell assay was carried out according to a procedure previously described to determine the estrogenic activity of enzyme inhibitors on the growth of estrogen-sensitive MCF-7 cells.^77 All chemicals tested were first dissolved in DMSO and subsequent dilutions were done in the proper cell culture media. The final concentration of DMSO in the culture medium was 0.1% or less. 3-(4,5-dimethylthiazol-2-yl)-5-(3-carboxymethoxyphenyl)-2-(4-sulfophenyl)-2-H-tetrazolium (MTS) was used as an indirect colorimetric measurement of cell proliferation according to the manufacturer's instructions (Promega, Madison, Wis.). At the end of the treatments, 20 μL of MTS solution was added to each well (100 μL) and the MCF-7 cells were incubated 4 h at 37° C. The absorbance at 490 nm was then measured with a Thermo max microplate reader (Molecular Devices, Sunnyvale, Calif.). The control (culture media+DMSO) is set to 100% of cell proliferation.

Experiment [1] concerns osteoblast-like Saos-2 cells. Briefly: Saos-2 cell proliferation, MTS. The following applies: in percentage of control (100%; 0.1 nM of estradiol). The text has this:
First, we wanted to evaluate their effect on cell proliferation. […] This is outlined in FIG. 8A. […] One of the main roles of osteoblasts in bone tissue is to construct a calcified extracellular matrix.^15 As such, bone formation is not principally due to osteoblasts proliferation but rather osteoblasts maturation into mature osteocytes. […] This is outlined in FIG. 8B.
(§1) CellTitter 96® Aqueous One Solution Cell Proliferation Assay was used as an indirect colorimetric measurement of cell proliferation according to the manufacturer's instructions. Briefly, after the treatments, 20 μL of MTS solution was added to each well (100 μL) of the plates and incubated at 37° C. for 2 h (Saos-2) or 4 h (T-47D). The absorbance at 490 nm was then measured with a Thermo max microplate reader (Molecular Devices, Sunnyvale, Calif.). The control (culture media+DMSO) is set to 100% of cell proliferation.
Saos-2 cells were suspended in phenol-red free McCoy's 5A medium supplemented with 10% charcoal-stripped FBS, penicillin (100 IU/mL) and streptomycin (100 μg/mL). The cells were seeded in 96-well plates at a density of 3 000 cells/well and allowed to attach. After 24 h, the inhibitors and the reference compounds diluted in fresh culture media were added to the wells and replaced every 2 days for 7 days of treatment.

The test system of a further experiment is T-47D cells. As to the kind of experiment: T-47D cell proliferation in presence of E2 (antiestrogenicity). The following applies: Homo sapiens, T47D; read-out: Breast cancer cells T-47D (ER+) Antagonist activity (%). The method, then: as §1
The cells were plated in 96-well plates at a density of 3 000 cells/well and allowed to attach for 48 h. After this pre-incubation, the inhibitors and the reference compounds diluted in fresh culture media were added to the wells and replaced every 2 days for 7 days of treatment.

In experiment [2] the test system is alkaline phosphatase activity in Saos-2 cells. Briefly: Alkaline phosphatase assay (Saos-2 cells), phenol library. Conditions: 1 nM; control (no treatment) fixed at 100%. The method, then: We also investigated the effect of selected phenol derivatives on alkaline phosphatase activity in Saos-2 cells (FIG. 13B).
Saos-2 cells were used similarly as reported in the cell proliferation assay. The cells were seeded at a density of 2 000 cells/well and treated for 3 days with each compound to be tested. The alkaline phosphatase (ALP) activity was measured using the Sensolyte® pNPP Alkaline Phosphatase Assay Kit *Colorimetric* (AnaSpec, Freemont, Calif.) following the manufacturer's protocol. Briefly, after three days of treatment, the cells were washed twice with washing buffer (provided with the kit) and lysed with 0.2% Triton X-100. The cell lysates were centrifuged and the supernatants were used to determine ALP activity. The supernatants were deposed in a 96-well plate and incubated for 30 minutes with a p-nitrophenyl phosphate solution (provided with the kit). The absorbance at 405 nm was measured with a Thermo max microplate reader (Molecular Devices, Sunnyvale, Calif.). The control (culture media+DMSO) is set to 100% of alkaline phosphatase activity.

As for `C[C@]12CC[C@@H]3c4ccc(O)cc4CC[C@H]3[C@@H]1CC[C@@H]2O` [E2, 17β-estradiol, reference compound], the “proliferation of MCF-7 (ER+) cells” value in the experiment on MCF-7 (ER+) cells was determined as 176%. Besides, the “Bone cells Saos-2 (ER+) SERM effect Proliferative activity (%)” value in experiment [1] (0.1 μM) and in experiment [1] (1 μM) was 100% in each case. The inhibition at 1 µM in the experiment on T-47D cells came to 0%. Also, in experiment [2], the “ALP activity in Saos-2 cells” value was determined as 148%.
